From patent US20200038399A1, “FORMULATIONS, METHODS, KIT, AND DOSAGE FORMS FOR TREATING BACTERIAL INFECTION” (Motif BioSciences Inc., priority 2016, published 2020)
Like-named read-outs stand apart in the source and are kept apart here.

Assays:
[1] = system: Moraxella catarrhalis RA 21; assay: MIC determination; type: cell-based; conditions: M. catarrhalis RA 21, 18 hours at 37° C., 5% CO2; for MIC: Moraxella catarrhalis, RA21, read-out: Minimum inhibitory concentrations (MIC)
Procedure: (§1) Minimum inhibitory concentration (MIC) determination.
(§2) In order to choose the appropriate concentrations to be tested in the checkerboard experiments, minimum inhibitory concentrations (MICs) were determined first. […] Table 6) in microtiter plates. Stock solutions (10 mg/ml) of reference antibiotics were prepared in DMSO (except for tobramycin, gentamicin, lomefloxacin, tetracycline) and stored at 4° C. The bacteria were grown in Mueller-Hinton Broth (BBL Mueller-Hinton Broth II, cation adjusted). S. pneumoniae was grown in Mueller-Hinton Broth supplemented with 5% (v/v) lysed sheep blood. For the growth of H. influenzae HTM (Haemophilus test medium) was used containing Mueller-Hinton broth, yeast extract ([…], Difco) and supplemented with NAD and hematin (HTM Supplement, Oxoid SR0158E). M. catarrhalis was grown in Brain Heart Infusion medium (Oxoid). The bacteria were incubated for 18 hours at 37° C. in ambient air except for S. pneumoniae, H. influenzae and M. catarrhalis, which were incubated in the presence of 5% CO2. The MIC was determined as the lowest concentration of an individual drug that lead to no visible growth.

[2] = system: Haemophilus influenzae ATCC 49766; assay: MIC determination; type: cell-based; conditions: for MIC: Haemophilus influenzae, read-out: Minimum inhibitory concentrations (MIC)
Procedure: as §1, §2

[3] = system: Klebsiella pneumoniae ATCC 33495; assay: MIC determination; type: cell-based; conditions: K. pneumonia 33495, 18 hours at 37° C.; for MIC: Klebsiella pneumoniae, ATCC33495, read-out: Minimum inhibitory concentrations (MIC)
Procedure: as §1, §2

[4] = system: Streptococcus pneumoniae ATCC 49619; assay: MIC determination; type: cell-based; conditions: S. pneumoniae 49619, 18 hours at 37° C., 5% CO2; for MIC: Streptococcus pneumoniae, ATCC49619, read-out: Minimum inhibitory concentrations (MIC)
Procedure: as §1, §2

[5] = system: Staphylococcus aureus ATCC 25923; assay: MIC determination; type: cell-based; conditions: S. aureus 25923, 18 hours at 37° C.; for MIC: Staphylococcus aureus, ATCC25923, read-out: Minimum inhibitory concentrations (MIC)
Procedure: as §1, §2

[6] = system: S. pneumoniae 1/1; assay: checkerboard synergy assay with iclaprim; type: cell-based, Streptococcus pneumoniae; conditions: antibiotic in combination with iclaprim
Procedure: (§3) The synergistic potential of iclaprim against Gram-positive and Gram-negative bacteria was determined using the checkerboard assay as described in Eliopoulos GM and Moellering, Jr. RC (1991), Antimicrobial combinations, pp. 432-492, in V. Lorian (ed.), Antibiotics in laboratory medicine, 3rd Ed., The Williams & Wilkins Co., Baltimore, the entire disclosure of which is herein incorporated by reference, allowing multiple test concentrations of iclaprim to be assayed in the presence of various concentrations of the other antibiotic in microtiter plates. The same growth media and conditions were used as described in 3.2 below.
(§4) Two different dilutions were used for iclaprim depending on the MIC determined for the bacterium. […] Iclaprim and the other antibiotic being tested were also dispensed alone in the last row and in the last column, respectively, as controls.
(§5) The Fractional Inhibitory Concentrations (FIC) for each added agent were calculated and used to determine the sum of FIC (ΣFIC) indicative of the synergistic potential of a given combination as described in Veyssier P. (1999), Inhibiteurs de la dihydrofolate reductase, nitrohétérocycles (furanes) et 8-hydroxyquinoleines, pp. 995-1027, in A. Bryskier (ed.), Antibiotiques agents antibatériens et antifongiques, 1st Ed., Ellipses Edition Marketing SA, Paris, the entire disclosure of which is herein incorporated by reference. Synergy was defined whereby the ΣFIC was <0.5, indifference (no synergy nor antagonism) whereby ΣFIC was ≥0.5 but ≤4, and antagonism whereby ΣFIC was >4. Additivity as a special form of indifference was defined whereby the ΣFIC was ≥0.5 but <1, for example as described in Stevens, D L et al. (1998), In vitro antimicrobial effects of various combinations of penicillin and clindamycin against four strains of Streptococcus pyogenes, J. Antimicrob. Chemother. 42: 1266-1268, the entire disclosure of which is herein incorporated by reference.

[7] = system: Moraxella catarrhalis RA 21; assay: checkerboard synergy assay with iclaprim; type: cell-based; conditions: antibiotic in combination with iclaprim; M. catarrhalis RA 21
Procedure: as §3, §4, §5

[8] = system: Haemophilus influenzae ATCC 49766; assay: checkerboard synergy assay with iclaprim; type: cell-based; conditions: antibiotic in combination with iclaprim; H. influenzae 49766
Procedure: as §3, §4, §5

[9] = system: Klebsiella pneumoniae ATCC 33495; assay: checkerboard synergy assay with iclaprim; type: cell-based; conditions: antibiotic in combination with iclaprim; K. pneumoniae 33495
Procedure: as §3, §4, §5

[10] = system: Streptococcus pneumoniae ATCC 49619; assay: checkerboard synergy assay with iclaprim; type: cell-based; conditions: antibiotic in combination with iclaprim; S. pneumoniae 49619
Procedure: as §3, §4, §5

[11] = system: Staphylococcus aureus ATCC 25923; assay: checkerboard synergy assay with iclaprim; type: cell-based; conditions: antibiotic in combination with iclaprim; S. aureus 25923
Procedure: as §3, §4, §5

[12] = system: S. aureus 101; assay: MIC determination; type: cell-based, Staphylococcus aureus; conditions: for MIC: Staphylococcus aureus, 101, 18 h, read-out: Minimum inhibitory concentrations (MIC)
Procedure: as §1, §2

[13] = system: S. pneumoniae 1/1; assay: MIC determination; type: cell-based, Streptococcus pneumoniae; conditions: S. pneumoniae 1/1, 18 hours at 37° C., 5% CO2; for MIC: Streptococcus pneumoniae, read-out: Minimum inhibitory concentrations (MIC)
Procedure: as §1, §2

[14] = system: S. aureus 101; assay: checkerboard synergy assay with iclaprim; type: cell-based, Staphylococcus aureus; conditions: antibiotic in combination with iclaprim
Procedure: as §3, §4, §5

[15] = ATCC49766, H. Influenza 49766, 18 hours at 37° C., 5% CO2

Molecule	Σ FIC [6]	Con (Conclusion) [7]	Σ FIC [7]	Con (Conclusion) [8]	Σ FIC [8]	Con (Conclusion) [9]	Σ FIC [9]	Σ FIC [10]	Σ FIC [11]	Σ FIC [14]	MIC [1] [µg/mL]	MIC [3] [µg/mL]	MIC [4] [µg/mL]	MIC [5] [µg/mL]	MIC [12] [µg/mL]	MIC [13] [µg/mL]	MIC [2, 15] [µg/mL]	other results
Gentamicin	1.06-1.50	Ind (Indifference (Ind))	1.00-1.25	Ind (Indifference (Ind))	1.02-1.13	Ad (Additivity (Ad))	0.63-1.25	0.75-1.13	2.05-2.48	1.01-1.50	–	–	–	–	–	–	–	Minimum inhibitory concentrations (MIC) [1]: 2 µg/mL; Minimum inhibitory concentrations (MIC) ([2]; H. Influenza 49766, 18 hours at 37° C., 5% CO2): 2 µg/mL; Minimum inhibitory concentrations (MIC) [3]: 1 µg/mL; Minimum inhibitory concentrations (MIC) [4]: 32 µg/mL; Minimum inhibitory concentrations (MIC) [5]: 0.5 µg/mL; Con (Conclusion) [6]: Ind (Indifference (Ind)); Con (Conclusion) [10]: Ad (Additivity (Ad)); Con (Conclusion) [11]: Ind (Indifference (Ind)); Minimum inhibitory concentrations (MIC) ([12]; S. aureus 101, 18 hours at 37° C.): >128 µg/mL; Minimum inhibitory concentrations (MIC) [13]: 32 µg/mL; Con (Conclusion) [14]: Ind (Indifference (Ind))
CN(C)[C@@H]1C(O)=C(C(N)=O)C(=O)[C@@]2(O)C(O)=C3C(=O)c4c(O)cccc4[C@@](C)(O)[C@H]3C[C@@H]12 [Tetracycline, Tetracyclin]	0.75-1.13	Ind (Indifference (Ind))	1.13-1.50	Ad (Additivity (Ad))	0.56-1.25	Ad (Additivity (Ad))	0.56-1.03	0.75-1.25	2.05-2.48	1.02-2.50	0.25	128	0.25	0.5	128	16	–	MIC ([2]; ATCC49766, 18 h): 0.5 µg/mL
CC1(C)S[C@@H]2[C@H](NC(=O)[C@H](N)c3ccccc3)C(=O)N2[C@H]1C(=O)O [Ampicillin]	–	Ind (Indifference (Ind))	–	Ind (Indifference (Ind))	1.13-1.50	Ad (Additivity (Ad))	–	–	1.00-1.00	–	16	> 128	0.5	0.5	> 128	16	1	–
CO[C@H]1/C=C/O[C@@]2(C)Oc3c(C)c(O)c4c(O)c(c(/C=N/N5CCN(C)CC5)c(O)c4c3C2=O)NC(=O)/C(C)=C\C=C\[C@H](C)[C@H](O)[C@@H](C)[C@@H](O)[C@@H](C)[C@H](OC(C)=O)[C@@H]1C [Rifampicin]	0.56-1.12	Ad (Additivity (Ad))	0.75-1.12	Ind (Indifference (Ind))	1.12-1.50	Ind (Indifference (Ind))	1.01-1.50	0.75-0.76	–	–	0.063	> 128	0.031	0.031	0.031	0.063	0.063	–
CO/N=C(\C(=O)N[C@@H]1C(=O)N2C(C(=O)O)=C(COC(C)=O)CS[C@H]12)c1csc(N)n1 [Cefotaxime]	0.63-1.06	Ad (Additivity (Ad))	0.56-1.03	Ad (Additivity (Ad))	–	Ind (Indifference (Ind))	1.13-1.50	–	1.03-1.50	1.06-1.50	4	0.5	0.25	4	32	8	0.063	–
O=C(N[C@H](CO)[C@H](O)c1ccc([N+](=O)[O-])cc1)C(Cl)Cl [Chloramphenicol]	–	Ind (Indifference (Ind))	1.25-1.50	Ind (Indifference (Ind))	1.06-1.50	Ind (Indifference (Ind))	1.01-1.50	0.75-1.25	1.13-2.50	0.63-1.13	0.5	> 128	4	8	64	16	0.5	–
